ChEMBL document CHEMBL1126380, “New aza(nor)adamantanes are agonists at the newly identified serotonin 5-HT4 receptor and antagonists at the 5-HT3 receptor” (Bioorg Med Chem Lett, 1992)

How the values were obtained:
[1] = target: T1, 5-hydroxytryptamine receptor 3A (Rattus norvegicus, UniProt P35563); experiment: Compound was evaluated […] for the antagonistic activity towards 5-hydroxytryptamine 3 receptor; assay type: functional
T1 sequence (P35563 whole entry): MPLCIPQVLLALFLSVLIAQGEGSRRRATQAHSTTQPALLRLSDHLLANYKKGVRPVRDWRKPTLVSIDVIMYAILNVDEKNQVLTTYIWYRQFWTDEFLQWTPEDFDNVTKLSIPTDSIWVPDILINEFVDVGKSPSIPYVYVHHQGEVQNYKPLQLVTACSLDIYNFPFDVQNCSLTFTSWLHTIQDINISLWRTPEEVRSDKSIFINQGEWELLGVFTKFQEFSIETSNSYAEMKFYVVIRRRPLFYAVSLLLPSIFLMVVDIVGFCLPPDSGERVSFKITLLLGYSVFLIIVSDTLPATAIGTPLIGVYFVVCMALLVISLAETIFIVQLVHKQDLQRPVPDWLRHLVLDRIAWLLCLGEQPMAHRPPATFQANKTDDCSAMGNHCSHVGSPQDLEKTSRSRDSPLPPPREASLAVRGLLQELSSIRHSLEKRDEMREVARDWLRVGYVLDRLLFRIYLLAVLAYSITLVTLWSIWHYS

Rattus norvegicus = experiment: Minimum effective dose(ip) required for inhibition of serotonin-induced bradycardic response in the Bezold-Jarisch reflex functional model; conditions: for minimal effective dose: Rattus norvegicus, ip, read-out: MED
[2] = target: 5-hydroxytryptamine receptor 4 (Rattus norvegicus, UniProt Q62758); experiment: Compound was evaluated for the agonistic activity towards 5-hydroxytryptamine 4 receptor using the rat tunica muscularis mucosae (TMM) esophagus strip assay; assay type: functional, tissue-based, Muscularis mucosa
5-hydroxytryptamine receptor 4, sequence (Q62758 whole entry): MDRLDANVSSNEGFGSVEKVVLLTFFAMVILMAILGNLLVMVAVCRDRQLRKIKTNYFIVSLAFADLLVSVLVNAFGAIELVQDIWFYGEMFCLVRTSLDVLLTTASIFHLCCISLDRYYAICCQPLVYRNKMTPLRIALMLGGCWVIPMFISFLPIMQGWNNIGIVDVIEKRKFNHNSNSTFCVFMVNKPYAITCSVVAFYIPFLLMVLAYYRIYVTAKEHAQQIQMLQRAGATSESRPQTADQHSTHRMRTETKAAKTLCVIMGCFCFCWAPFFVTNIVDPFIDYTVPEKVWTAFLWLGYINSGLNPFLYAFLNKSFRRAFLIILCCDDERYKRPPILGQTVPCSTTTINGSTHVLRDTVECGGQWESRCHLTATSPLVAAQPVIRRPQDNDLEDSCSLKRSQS

SMILES | Ki [1] [nM] | MED (Rattus norvegicus) [mg/kg] | EC50 [2] [nM] | minimal effective dose (Rattus norvegicus) [mg/kg]
COc1cc(N)c(Cl)cc1C(=O)NC1C2CC3CC1CN(C3)C2 (stereo in doubt) | 9 | 0.03 | 262 | 
COc1cc(N)c(Cl)cc1C(=O)N[C@@H]1CCN(CCCOc2ccc(F)cc2)C[C@@H]1OC [CISAPRIDE] |  |  |  | 5
COc1cc(N)c(Cl)cc1C(=O)N[C@@H]1CN2CCC1CC2 | 0.23 |  | 203 | 0.3
COc1cc(N)c(Cl)cc1C(=O)N[C@H]1C2CC3CN(C2)CC31 (some centres undefined) | 3.9 |  | 3870 | 0.01
COc1cc(N)c(Cl)cc1C(=O)NC1CCN2CCCC1C2 (centres undefined) [RENZAPRIDE] | 5.6 |  | 98 | 0.25
COc1cc(N)c(Cl)cc1C(=O)NC1C2CC3CC1CN(C3)C2 (stereo in doubt; 1A) | 336 | 10 | 538 | 
COc1cc(N)c(Cl)cc1C(=O)N[C@@H]1C2CC3CN(C2)CC31 (some centres undefined) | 1.2 |  | 51.3 | 0.01
